Laboratory results: patent US9623063B2, “Extracts from Ajuga reptans cell lines, their preparation and use” (I.R.B. ISTITUTO DI RICERCHE BIOTECNOLOGICHE S.r.l., priority 2005, dated 2017)
Converted amounts (≈) assume the structure as drawn. Where two headings read alike, the source gives them in different places.

What was measured:
[1] = Hydroxyl radical scavenger activity (Fenton reaction, luminol chemiluminescence); type: biochemical
From the text: Ajuga reptans Extracts 1 and 2, prepared as described in examples 1 and 2, and isoteupolioside have been used to assess in vitro antioxidant action with specific oxygen radical generating systems such as the superoxide anion (O2^−), the hydroxyl radical (HO^−), the peroxynitrite radical (ONOO^−) and the inhibition of lipid peroxidation. The superoxide anion has been measured by a chemiluminescent assay based on the hypoxanthine (HPX)/xanthine oxidase (XOD) reaction using the Lumimax Superoxide Anion Detection Kit (Stratagene, La Jolla, Calif., USA) and following the manufacturer's instructions. Hydroxyl radical scavenger activity has been measured by means of the Fenton reaction for the production of hydroxyl radicals and chemiluminescent dosage (using a Victor^3 chemiluminometer, Wallac, Finland) with luminol. Peroxynitrite ions have been determined by means of dosage with a spontaneous generator of peroxynitrites (3-morpholinosidnonimine hydrochloride; SIN-1) and a stable reagent for the nitroxyl ions (2-(4-carboxyphenyl)-4,4,5,5-tetramethylimidazoline-1-oxyl-3-oxide potassium salt PTIO spin trap) then dosed by means of electron spin resonance (ESR) using a Nippon Denshi JES-FR30. Lipid peroxidation has been generated using Fe^2+ induced-oxygen reactive species, and detected using thiobarbituric acid in accordance with Buege, J A & Aust, S D: Microsomal lipid peroxidation (Methods Enzymol.
The Extract 1 and the Extract 2 set forth in Table 4 are derived from Ajuga reptans cell cultures comprising the phenylpropanoids at 90% and 54%, respectively. The results are expressed as the concentration inhibiting 50% of activity (IC50), means of 6 independent assays.

[2] = system: whole blood; assay: Luminol dependent chemiluminescence of whole blood; type: cell-based, human; settings: 0.5 h, read-out: Whole blood chemiluminescence (IC50 mg/ml)
Method: Anti-inflammatory activity has been assessed by measuring luminol dependent chemiluminescence generated by free radicals released from whole blood and from white blood cells. The assay has been performed using the following protocol: 10 μl of fresh human blood is mixed with 0.980 ml of Hanks saline solution containing 5×10^−5 M luminol and the test sample (at various concentrations). The chemiluminescent response is recorded continuously for 30 minutes at a temperature of 37° C. The results are expressed as IC50 (mg/ml), i.e. as the minimum sample concentration inhibiting chemiluminescence by 50% with respect to the control. To isolate white blood cells (WBC) from whole blood one proceeds in the following manner: 1 ml of fresh blood is layered onto a Hipaque gradient (p=1.119) and centrifuged at 250×g for 60 minutes at room temperature. Following centrifugation, the pellet containing the white blood cells is washed twice, using a large volume of cold Hanks saline solution. Finally, the washed WBCs are resuspended in 0.1 ml di HBSS containing foetal calf serum. 10^6 WBC are added to a chemiluminometer cuvette. 10 μl of PMA (final concentration equal to 10 nM) are added to induce the formation of free radicals. The chemiluminescent response is recorded continuously for 30 minutes at a temperature of 37° C. […]

[3] = Metal chelation, spectrophotometric (Fe2+); type: physicochemical
From the text: (§1) The chelating activities of Ajuga reptans extracts in relation to Fe^2+, Fe^3+, Cu^2+ and Ni^2+ metal ions has been determined by means of spectrophotometric measurements using a Shimadzu 1770 UV spectrophotometer. The activities of chelating agents depends on the association constant (equilibrium) of their reactions with the metals according to the following reaction:
(§2) [formula] wherein Keq is the equilibrium constant equal to the ratio of concentrations at equilibrium of a complex and a product of equilibrium concentrations of metal ions and a chelator:
(§3) The method used for determining chelating activities is well documented in the literature (Korkina L G, Afarras'er I B. Antioxidant and chelating properties of flavonoids. Adv. Pharmacol., 1997, 38:151-63). The results are expressed as Keq (M^−1) calculated for a pure phenylpropanoid. This way the chelating activity against ferrous (Fe II), ferric (Fe III), copper (Cu II) and nickel ions has been calculated.

[4] = Metal chelation, spectrophotometric (Cu2+); type: physicochemical
From the text: as §1, §2, §3

[5] = molecular target: T1, 5 alpha reductase, type I (Homo sapiens, UniProt P18405); assay: Type I 5 alpha reductase inhibition ([14C] testosterone conversion); type: biochemical
T1 construct: made in house; host or cells: genetically modified yeast
T1 sequence (P18405 1-259): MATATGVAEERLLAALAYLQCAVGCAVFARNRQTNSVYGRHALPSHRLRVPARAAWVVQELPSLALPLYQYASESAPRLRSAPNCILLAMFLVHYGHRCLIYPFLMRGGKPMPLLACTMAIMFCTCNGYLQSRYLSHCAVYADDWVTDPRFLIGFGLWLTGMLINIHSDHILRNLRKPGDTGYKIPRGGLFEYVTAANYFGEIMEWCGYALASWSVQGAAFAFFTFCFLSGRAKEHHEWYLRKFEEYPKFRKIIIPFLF
Method: Determination of the 5 alpha reductase inhibitory activities by Ajuga reptans extracts in comparison to Serenoa repens extracts. Said determination has been performed using enzymes (5 alpha reductase, type I and type II) produced by genetically modified yeast. Enzyme activities have been determined in the presence of Ajuga reptans extracts, teupolioside, isoteupolioside and Serenoa repens extracts.
Type I 5 alpha reductase activity has been assayed by incubating the enzyme in 0.1 M Tris-citrate buffer (pH 7.0), containing 5 μM [^14C] radio-labelled testosterone (Amersham, Sweden) and 5 mM NADPH (Sigma) in a final volume of 5 ml. The solution thus obtained has been incubated for 1 hour at 37° C.
In both assays, the steroids have been extracted using 5 ml of methylene chloride. The extracts have then been dried under a stream of nitrogen and the dried residues obtained have been dissolved in 20 μl of a chloroform-methanol mixture (2:1 v/v). […] For quantification of the results, the spots have been scraped from the TLC plate and extracted with 2 ml of ethyl acetate. The extracts obtained have been analysed, using scintillation fluid, with the aid of a Wallach β-counter. The enzyme activity has been calculated from the percentage conversion (C %) of the substrate into final product: C%=[counted product/(counted substrate+product)]×100.

[6] = calculated for a pure phenylpropanoid

| SMILES | Hydroxyl radial (IC50) ([1]; means of 6 independent assays) | IC50 ([2]; fresh human blood, luminol, 30 min, 37° C.) | Fe^2+ (Keq, M^−1) [3, 6] | Cu^2+ (Keq, M^−1) [4, 6] | IC50 ([5]; first column of Table 9, pH 7.0, 5 μM testosterone, read-out: Type I 5 alpha reductase inhibition (IC50) (converted)) | Hydroxyl radial (IC50) [1] | IC50 ([2]; Homo sapiens) | Fe^2+ (Keq, M^−1) [3] | Cu^2+ (Keq, M^−1) [4] | IC50 [5] |
| --- | --- | --- | --- | --- | --- | --- | --- | --- | --- | --- |
| C[C@@H]1O[C@@H](O[C@@H]2[C@@H](O)[C@H](OCCc3ccc(O)c(O)c3)O[C@H](CO)[C@H]2OC(=O)/C=C/c2ccc(O)c(O)c2)[C@H](O[C@@H]2O[C@H](CO)[C@H](O)[C@H](O)[C@H]2O)[C@H](O)[C@H]1O [Teupolioside, teupolioside] | 1.6 µg/mL | 1.4 mg/mL (≈ 1780 µM) | 350000 ± 20000 M⁻¹ | 80000 ± 30000 M⁻¹ | 21.6 µM | – | – | – | – | – |
| CC1OC(OC2C(O)C(COC(=O)C=Cc3ccc(O)c(O)c3)OC(OCCc3ccc(O)c(O)c3)C2O)C(OC2OC(CO)C(O)C(O)C2O)C(O)C1O (stereo not shown) [Isoteupolioside, isoteupolioside] | – | – | – | – | – | 1.04 µg/mL | 1.3 mg/mL (≈ 1650 µM) | 340000 ± 10000 M⁻¹ | 70000 ± 20000 M⁻¹ | 20.3 µM |
